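Each compound was tested at five concentrations against cells in 96-well plates for 48 hours. GI50 marks 50% less growth. Definition used: TGI = concentration required for complete inhibition of growth.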
Tests used:
Test in all cases: inhibition of tumour cell growth, NCI panel, 48 h
[1] = system: UACC-62 melanoma
[2] = system: DU-145 prostate
[3] = system: CAKI-1 renal
[4] = system: ACHN renal
[5] = system: SN12C renal
[6] = system: OVCAR-8 ovarian
[7] = system: NCI-H460 lung
[8] = system: SK-MEL-2 melanoma
[9] = system: SK-MEL-28 melanoma
[10] = system: MCF7 breast
[11] = system: TK-10 renal
[12] = system: NCI/ADR-RES ovarian
[13] = system: HL-60(TB) leukemia
[14] = system: RXF 393 renal
[15] = system: CCRF-CEM leukemia
[16] = system: HT29 colon
[17] = system: MDA-MB-231 breast
[18] = system: 786-0 renal
[19] = system: HS 578T breast
[20] = system: SF-268 CNS
[21] = system: HCT-15 colon
[22] = system: MDA-MB-435
[23] = system: K-562 leukemia
[24] = system: LOX IMVI melanoma
[25] = system: SR leukemia
[26] = system: OVCAR-5 ovarian
[27] = system: SK-MEL-5 melanoma
[28] = system: SNB-75 CNS
[29] = system: A498 renal
[30] = system: MOLT-4 leukemia
[31] = system: IGROV1 ovarian
[32] = system: EKVX NSCLC
[33] = system: OVCAR-4 ovarian
[34] = system: M14 melanoma
[35] = system: KM12 colon
[36] = system: HOP-92 NSCLC
[37] = system: SNB-19 CNS
[38] = system: HCC-2998 colon
[39] = system: SF-295 CNS
[40] = system: HCT-116 colon
[41] = system: NCI-H226 lung
[42] = system: HOP-62 NSCLC
[43] = system: NCI-H522 lung
[44] = system: UO-31 renal
[45] = system: OVCAR-3 ovarian
[46] = system: T-47D breast
[47] = system: SK-OV-3 ovarian
[48] = system: UACC-257 melanoma
[49] = system: SW-620 colon
[50] = system: SF-539 CNS
[51] = system: COLO 205 colon
[52] = system: PC-3 prostate
[53] = system: U251 CNS
[54] = system: MALME-3M melanoma
[55] = system: NCI-H23 lung
[56] = system: A549 NSCLC
[57] = system: BT-549 breast

Nc1c(C(=O)Nc2cccc(Cl)c2)sc2nc3c(cc12)C(=O)CCC3
GI50 [1]: 349 nM | TGI [1]: > 100000 nM | GI50 [2]: 377 nM | TGI [2]: > 100000 nM | GI50 [3]: 438 nM | TGI [3]: > 100000 nM | GI50 [4]: > 20000 nM | TGI [4]: > 100000 nM | GI50 [5]: 836 nM | TGI [5]: > 100000 nM | GI50 [6]: > 41300 nM | TGI [6]: > 100000 nM | GI50 [7]: 322 nM | TGI [7]: > 100000 nM | GI50 [8]: 488 nM | TGI [8]: > 100000 nM | GI50 [9]: 567 nM | TGI [9]: > 100000 nM | GI50 [10]: 201 nM | TGI [10]: > 100000 nM | GI50 [11]: 36700 nM | TGI [11]: > 100000 nM | GI50 [12]: 466 nM | TGI [12]: > 100000 nM | TGI [13]: > 100000 nM | GI50 [14]: 479 nM | TGI [14]: > 42200 nM | GI50 [15]: 383 nM | TGI [15]: > 100000 nM | GI50 [16]: 338 nM | TGI [16]: > 100000 nM | GI50 [17]: 1880 nM | TGI [17]: > 100000 nM | GI50 [18]: 739 nM | TGI [18]: > 100000 nM | GI50 [19]: 422 nM | TGI [19]: > 100000 nM | GI50 [20]: > 45400 nM | TGI [20]: > 100000 nM | GI50 [21]: 411 nM | TGI [21]: > 100000 nM | GI50 [22]: 56.3 nM | TGI [22]: 284 nM | GI50 [23]: 101 nM | TGI [23]: > 100000 nM | GI50 [24]: 905 nM | TGI [24]: > 100000 nM | GI50 [25]: 383 nM | TGI [25]: > 100000 nM | GI50 [26]: 2090 nM | TGI [26]: > 100000 nM | GI50 [27]: 141 nM | TGI [27]: > 100000 nM | GI50 [28]: 227 nM | TGI [28]: 2470 nM | GI50 [29]: 134 nM | GI50 [30]: > 100000 nM | TGI [30]: > 100000 nM | GI50 [31]: 2280 nM | TGI [31]: > 100000 nM | TGI [32]: > 100000 nM | GI50 [33]: 13300 nM | TGI [33]: > 100000 nM | GI50 [34]: 485 nM | TGI [34]: > 100000 nM | GI50 [35]: 298 nM | TGI [35]: > 100000 nM | TGI [36]: > 100000 nM | GI50 [37]: 529 nM | TGI [37]: > 100000 nM | GI50 [38]: 849 nM | TGI [38]: > 100000 nM | GI50 [39]: 243 nM | GI50 [40]: 431 nM | TGI [40]: > 100000 nM | GI50 [41]: 11100 nM | TGI [41]: > 100000 nM | GI50 [42]: 663 nM | TGI [42]: > 100000 nM | GI50 [43]: 190 nM | TGI [43]: 788 nM | TGI [44]: > 100000 nM | GI50 [45]: 305 nM | TGI [45]: > 100000 nM | GI50 [46]: 422 nM | TGI [46]: > 100000 nM | GI50 [47]: 313 nM | TGI [47]: > 70500 nM | GI50 [48]: > 100000 nM | TGI [48]: > 100000 nM | GI50 [49]: 351 nM | TGI [49]: > 100000 nM | GI50 [50]: 586 nM | TGI [50]: > 100000 nM | GI50 [51]: 288 nM | GI50 [52]: 528 nM | TGI [52]: > 100000 nM | GI50 [53]: 599 nM | TGI [53]: > 60200 nM | GI50 [54]: 498 nM | TGI [54]: > 100000 nM | GI50 [55]: 751 nM | TGI [55]: > 100000 nM | GI50 [56]: 420 nM | TGI [56]: > 100000 nM | GI50 [57]: 948 nM | TGI [57]: > 100000 nM

Source: PubChem BioAssay (NCI)
